Assays:
Assay type in all cases: functional
Staphylococcus aureus [1] = assay: Antibacterial activity against Staphylococcus aureus ATCC 29213 assessed as inhibition of bacterial growth incubated for 18 hrs by two-fold dilution assay
Staphylococcus aureus [2] = assay: Antibacterial activity against Staphylococcus aureus […] assessed as inhibition of bacterial growth incubated for 18 hrs by two-fold dilution assay
Staphylococcus aureus [3] = assay: Antibacterial activity against methicillin-resistant Staphylococcus aureus ATCC 33591 assessed as inhibition of bacterial growth incubated for 18 hrs by two-fold dilution assay
Staphylococcus aureus [4] = assay: Antibacterial activity against methicillin-resistant Staphylococcus aureus […] assessed as inhibition of bacterial growth incubated for 18 hrs by two-fold dilution assay
[5] = system: Staphylococcus epidermidis; assay: Antibacterial activity against Staphylococcus epidermidis ATCC 12228 assessed as inhibition of bacterial growth incubated for 18 hrs by two-fold dilution assay
[6] = system: Staphylococcus epidermidis; assay: Antibacterial activity against methicillin-resistant Staphylococcus epidermidis clinical isolate 16-5 assessed as inhibition of bacterial growth incubated for 18 hrs by two-fold dilution assay
Enterococcus faecalis [7] = assay: Antibacterial activity against Enterococcus faecalis ATCC 29212 assessed as inhibition of bacterial growth incubated for 18 hrs by two-fold dilution assay
Enterococcus faecalis [8] = assay: Antibacterial activity against vancomycin-resistant Enterococcus faecalis ATCC 51299 assessed as inhibition of bacterial growth incubated for 18 hrs by two-fold dilution assay
Escherichia coli = assay: Antibacterial activity against Escherichia coli ATCC 25922 assessed as inhibition of bacterial growth incubated for 18 hrs by two-fold dilution assay
Enterococcus faecium [9] = assay: Antibacterial activity against vancomycin-resistant Enterococcus faecium ATCC 700221 assessed as inhibition of bacterial growth incubated for 18 hrs by two-fold dilution assay
Enterococcus faecium [10] = assay: Antibacterial activity against Enterococcus faecium clinical isolate 16-5 assessed as inhibition of bacterial growth incubated for 18 hrs by two-fold dilution assay

Measured: MIC

CC(C)=C[C@H]1c2cccc3[nH]cc(c23)C[C@H]2C(=O)/C(=C(\C)O)C(=O)N21
≥ 64 µg/mL: Staphylococcus aureus [1] | Staphylococcus aureus [2] | Staphylococcus aureus [3] | Staphylococcus aureus [4] | [5] | [6] | Enterococcus faecalis [7] | Enterococcus faecalis [8] | Escherichia coli | Enterococcus faecium [9] | Enterococcus faecium [10]

CC(C)=C[C@@H]1c2cccc3[nH]cc(c23)C[C@@H]2C(=O)/C(=C(\C)O)C(=O)N21
≥ 64 µg/mL: Staphylococcus aureus [1] | Staphylococcus aureus [2] | Staphylococcus aureus [3] | Staphylococcus aureus [4] | [5] | [6] | Enterococcus faecalis [7] | Enterococcus faecalis [8] | Escherichia coli | Enterococcus faecium [9] | Enterococcus faecium [10]

CC(C)=C[C@H]1c2cccc3[nH]cc(c23)C[C@@H]2C(=O)/C(=C(\C)O)C(=O)N21
≥ 64 µg/mL: Staphylococcus aureus [1] | Staphylococcus aureus [2] | Staphylococcus aureus [3] | Staphylococcus aureus [4] | [5] | [6] | Enterococcus faecalis [7] | Enterococcus faecalis [8] | Escherichia coli | Enterococcus faecium [9] | Enterococcus faecium [10]

CC(C)=C[C@@H]1c2cccc3[nH]cc(c23)C[C@H]2C(=O)/C(=C(\C)O)C(=O)N12
≥ 64 µg/mL: Staphylococcus aureus [1] | Staphylococcus aureus [2] | Staphylococcus aureus [3] | Staphylococcus aureus [4] | [5] | [6] | Enterococcus faecalis [7] | Enterococcus faecalis [8] | Escherichia coli | Enterococcus faecium [9] | Enterococcus faecium [10]
